Assay results published in article PMC12309613 (Translational Oncology, 2025).

Molecular target: T1, PYCR1 (recombinant human His-PYCR1) (Homo sapiens, UniProt P32322)
T1 sequence (P32322 2-319): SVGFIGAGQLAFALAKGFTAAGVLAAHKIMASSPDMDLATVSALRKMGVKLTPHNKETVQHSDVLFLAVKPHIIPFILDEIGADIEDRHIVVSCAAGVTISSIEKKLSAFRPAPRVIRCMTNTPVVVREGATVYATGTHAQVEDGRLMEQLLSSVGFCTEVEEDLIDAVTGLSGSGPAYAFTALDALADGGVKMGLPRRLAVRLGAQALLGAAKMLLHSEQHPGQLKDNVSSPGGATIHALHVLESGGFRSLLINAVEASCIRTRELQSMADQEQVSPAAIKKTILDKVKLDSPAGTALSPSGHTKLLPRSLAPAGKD
Assay: surface plasmon resonance
Type: binding

For `Nc1ncnc2c([C@@H]3O[C@H](CO)[C@@H](O)[C@H]3O)c[nH]c12` [9-DAA], which Kd is on record?
Its Kd is 7.89 µM.
